In patent publication US10947253B2, “Fused polycyclic dimers” (Ankh Life Sciences Limited, priority 2019, dated 2021):

Tests used:
MDA-MB-231 = test: MTT growth inhibition (in vitro cytotoxicity), MDA-MB-231; assay type: cell-based; settings: Homo sapiens, average IC50
Procedure: (§1) The following Table sets forth the IC50 values of harmaline and quinoline analogs against 23 human cancer cell lines. Growth inhibition effects (in vitro cytotoxicity) on pancreatic, endometrial, breast, lung, ovarian, renal, cervical, lymphoma, and myeloma cancer cells were determined by MTT assays and represented by average IC50 values. In the Table, the results are given in terms of μM, and nd=not determined.

FaDu = test: MTT growth inhibition (in vitro cytotoxicity), FaDu; assay type: cell-based; settings: Homo sapiens, average IC50
Procedure: as §1

RPMI-8226 = test: MTT growth inhibition (in vitro cytotoxicity), RPMI-8226; assay type: cell-based; settings: Homo sapiens, average IC50
Procedure: as §1

AN3CA = test: MTT growth inhibition (in vitro cytotoxicity), AN3CA; assay type: cell-based; settings: Homo sapiens, AN3-CA, average IC50
Procedure: as §1

human cancer cell lines = test: Cancer cell growth inhibition, summary over cell lines; assay type: cell-based; settings: cell lines not specified, read-out: cancer cell growth inhibition (IC50)
Procedure: as §1

ASPC-1 = test: MTT growth inhibition (in vitro cytotoxicity), ASPC-1; assay type: cell-based; settings: Homo sapiens, ASPC1, average IC50
Procedure: as §1

A2780CP = test: MTT growth inhibition (in vitro cytotoxicity), A2780CP; assay type: cell-based; settings: Homo sapiens, A2780C/P, average IC50
Procedure: as §1

HEC-1a = test: MTT growth inhibition (in vitro cytotoxicity), HEC-1a; assay type: cell-based; settings: Homo sapiens, average IC50
Procedure: as §1

H1975 (EGFR mut) = test: MTT growth inhibition (in vitro cytotoxicity), H1975 (EGFR mut); assay type: cell-based; settings: Homo sapiens, NCI-H1975, average IC50
Procedure: as §1

DoHH-2 = test: MTT growth inhibition (in vitro cytotoxicity), DoHH-2; assay type: cell-based; settings: Homo sapiens, average IC50
Procedure: as §1

SiHA = test: MTT growth inhibition (in vitro cytotoxicity), SiHA; assay type: cell-based; settings: Homo sapiens, average IC50
Procedure: as §1

BxPC-3 = test: MTT growth inhibition (in vitro cytotoxicity), BxPC-3; assay type: cell-based; settings: Homo sapiens, average IC50
Procedure: as §1

MOLP-8 = test: MTT growth inhibition (in vitro cytotoxicity), MOLP-8; assay type: cell-based; settings: Homo sapiens, average IC50
Procedure: as §1

Metabolic half-life = assay type: in vitro ADME; settings: read-out: metabolic half-lives
H1650(EGFR mut) = test: MTT growth inhibition (in vitro cytotoxicity), H1650(EGFR mut); assay type: cell-based; settings: Homo sapiens, NCI-H1650, average IC50
Procedure: as §1

A2780 = test: MTT growth inhibition (in vitro cytotoxicity), A2780; assay type: cell-based; settings: Homo sapiens, average IC50
Procedure: as §1

OCI-LY3 = test: MTT growth inhibition (in vitro cytotoxicity), OCI-LY3; assay type: cell-based; settings: Homo sapiens, average IC50
Procedure: as §1

L363 = test: MTT growth inhibition (in vitro cytotoxicity), L363; assay type: cell-based; settings: Homo sapiens, L-363, average IC50
Procedure: as §1

KMM-1 = test: MTT growth inhibition (in vitro cytotoxicity), KMM-1; assay type: cell-based; settings: Homo sapiens, average IC50
Procedure: as §1

KMS-34 = test: MTT growth inhibition (in vitro cytotoxicity), KMS-34; assay type: cell-based; settings: Homo sapiens, average IC50
Procedure: as §1

JIM1 = test: MTT growth inhibition (in vitro cytotoxicity), JIM1; assay type: cell-based; settings: Homo sapiens, average IC50
Procedure: as §1

MIA Paca-2 = test: MTT growth inhibition (in vitro cytotoxicity), MIA Paca-2; assay type: cell-based; settings: Homo sapiens, average IC50
Procedure: as §1

MDA-MB-468 = test: MTT growth inhibition (in vitro cytotoxicity), MDA-MB-468; assay type: cell-based; settings: Homo sapiens, average IC50
Procedure: as §1

A498 = test: MTT growth inhibition (in vitro cytotoxicity), A498; assay type: cell-based; settings: Homo sapiens, average IC50
Procedure: as §1

HCC70 = test: MTT growth inhibition (in vitro cytotoxicity), HCC70; assay type: cell-based; settings: Homo sapiens, average IC50
Procedure: as §1

SMILES	IC50 (MDA-MB-231) [µM]	IC50 (FaDu) [µM]	IC50 (RPMI-8226) [µM]	IC50 (AN3CA) [µM]	IC50 (human cancer cell lines) [µM]	IC50 (ASPC-1) [µM]	IC50 (A2780CP) [µM]	IC50 (HEC-1a) [µM]	IC50 (H1975 (EGFR mut)) [µM]	IC50 (DoHH-2) [µM]	IC50 (SiHA) [µM]	IC50 (BxPC-3) [µM]	IC50 (MOLP-8) [µM]	half-life (Metabolic half-life) [h]	IC50 (H1650(EGFR mut)) [µM]	IC50 (A2780) [µM]	IC50 (OCI-LY3) [µM]	IC50 (L363) [µM]	IC50 (KMM-1) [µM]	IC50 (KMS-34) [µM]	other results
COc1ccc2c3c([nH]c2c1)C(CC(CC1=NCCc2c1[nH]c1cc(OC)ccc21)c1ccc(O)c(OC)c1)=NCC3 [Compound 5, 4-(1,3-bis(7-methoxy-4,9-dihydro-3H-pyrido[3,4-b]indol-1-yl)propan-2-yl)-2-methoxy-phenol]	2.52	3.87	3.19	2.5	4 to 7	6.75	3.76	5.05	6.12	1.83	4.88	2.11	3.37	1.28 ± 0.0393	2.78	5	4.54	2.69	3.48	4.72	IC50 (JIM1): 3.17 µM; IC50 (MIA Paca-2): 2.87 µM; IC50 (MDA-MB-468): 2.76 µM; IC50 (A498): 3.56 µM; IC50 (HCC70): 2.38 µM
COc1ccc2[nH]c3c(c2c1)CCN=C3CCCC1=NCCc2c1[nH]c1ccc(OC)cc21 [Compound 7, 1,3-bis(6-methoxy-4,9-dihydro-3H-pyrido[3,4-b]indol-1-yl)propane]	3.12	2.34	1.97	3.01	0.6 to 2	7.9	4.12	7.02	5.77	2.41	12.7	3.21	1.88	2.6 ± 0.124	4.95	2.54	8.85	2.47	5.18	4.41	IC50 (JIM1): 6.15 µM; IC50 (MIA Paca-2): 4.54 µM; IC50 (MDA-MB-468): 2.6 µM; IC50 (A498): 5.39 µM; IC50 (HCC70): 5.13 µM
COc1ccc2[nH]c3c(c2c1)CCN=C3CC(C)(C)CC1=NCCc2c1[nH]c1ccc(OC)cc21 [Compound 8, 1,1′-(2,2-dimethylpropane-1,3-diyl)bis(6-methoxy-4,9-dihydro-3H-pyrido[3,4-b]indole)]	1.5	0.98	0.81	1.96	0.6 to 2	2.07	2.23	2.22	2.08	2.21	2.89	0.95	0.67	6.88 ± 1.94	1.78	1.38	2.59	1.21	1.49	1.7	IC50 (JIM1): 2.59 µM; IC50 (MIA Paca-2): 1.22 µM; IC50 (MDA-MB-468): 1.9 µM; IC50 (A498): 1.71 µM; IC50 (HCC70): 1.3 µM
